The results in this text go back to ChEMBL document CHEMBL3044912, “Nematicidal efficacy of isothiocyanates against root-knot nematode Meloidogyne javanica in cucumber” (2011).

Values after ≈ are worked out from the molar mass of the structure shown. Active and inactive are the calls of the source. The rule behind the calls is not given here.

The test system of assay [1] is Meloidogyne javanica. In words: Nematicidal activity against Meloidogyne javanica J2 (root-knot nematode) assessed as mortality rate compound treated as vapor at 25 +/- 2 degC. The format is functional. The conditions noted are these: for LC50: Meloidogyne javanica.
Assay [2] relates to Meloidogyne javanica. The experiment in a line: Nematicidal activity against Meloidogyne javanica J2 (root-knot nematode) assessed as mortality rate at 5 ug/mL (vapor concentration in the air, weight/volume) at 25 +/- 2 degC measured after 72 hr. The assay is classed as functional.
Assay [3] has as its system Meloidogyne javanica. The experiment in a line: Nematicidal activity against Meloidogyne javanica J2 (root-knot nematode) assessed as mortality rate at 5 ug/mL (vapor concentration in the air, weight/volume) at 25 +/- 2 degC measured after 48 hr. The format is functional.
Assay [4] relates to Meloidogyne javanica. In words: Nematicidal activity against Meloidogyne javanica (root-knot nematode) inoculated in cucumber plant assessed as reduction in galls at 0.5 ml/kg of soil dosed 7 days before planting by pot experiment. The assay is classed as functional, organism-based.
Assay [5] relates to Meloidogyne javanica. In words: Nematicidal activity against Meloidogyne javanica (root-knot nematode) inoculated in cucumber plant assessed as reduction in Meloidogyne javanica (root-knot nematode)numbers at 0.5 to 2 ml/kg of soil dosed 7 days before planting by pot experiment. The format is functional, organism-based.
For assay [6], the system named is Meloidogyne javanica. In words: Nematicidal activity against Meloidogyne javanica (root-knot nematode) infected in cucumber field assessed as reduction in root gallling at 2 kg/ha by field plot experiment. The assay is classed as functional, organism-based.
Assay [7] relates to Meloidogyne javanica. The experiment in a line: Nematicidal activity against Meloidogyne javanica (root-knot nematode) inoculated in cucumber plant assessed as reduction in galls compound treated in soil 7 days before planting by pot experiment. The format is functional.
Assay [8] has as its system Meloidogyne javanica. The experiment in a line: Nematicidal activity against Meloidogyne javanica (root-knot nematode) inoculated in cucumber plant assessed as reduction in galls at 1 ml/kg of soil dosed 7 days before planting by pot experiment. The format is functional, organism-based.
Assay [9] has as its system Meloidogyne javanica. In words: Nematicidal activity against Meloidogyne javanica (root-knot nematode) inoculated in cucumber plant assessed as reduction in galls at 2 ml/kg of soil dosed 7 days before planting by pot experiment. The format is functional, organism-based.
Assay [10] deals with Meloidogyne javanica. The experiment in a line: Nematicidal activity against Meloidogyne javanica (root-knot nematode) infected in cucumber field assessed as reduction in root gallling at 5 kg/ha by field plot experiment. The format is functional, organism-based.

Regarding `CC(N=C=S)c1ccccc1` (centres undefined) [1-PHENYLETHYL ISOTHIOCYANATE], in the assay on Meloidogyne javanica [1], the LC90 was 8.14 µg/mL (≈ 49.9 µM) and the median lethal concentration (LC50) was 4.24 µg/mL (≈ 26 µM). In addition, in the assay on Meloidogyne javanica [2], the mortality at 5 µg/mL is 76.6%. The mortality at 5 µg/mL in the assay with Meloidogyne javanica [3] was 58.6%.

Turning to `C=CC(=O)N=C=S` [ACRYLOYL ISOTHIOCYANATE], the outcome in the assay with Meloidogyne javanica [4], in the assay on Meloidogyne javanica [8] and in the assay with Meloidogyne javanica [9] was Active. Further, the inhibition result with Meloidogyne javanica [5] and in the assay with Meloidogyne javanica [6] was “Active” each time. In the assay on Meloidogyne javanica [1], the LC90 stood at 4.63 µg/mL (≈ 40.9 µM). Besides, in the assay with Meloidogyne javanica [1], the 50% lethal concentration (LC50) was found to be 2.53 µg/mL (≈ 22.4 µM). Moreover, the LD50 in the assay with Meloidogyne javanica [7] came out at 0.48 mL. Besides, the mortality at 5 µg/mL with Meloidogyne javanica [2] stood at 92.1%; in the assay on Meloidogyne javanica [3], 71%.

Regarding `C=CCN=C=S` [ALLYL ISOTHIOCYANATE], the outcome in the assay with Meloidogyne javanica [4], with Meloidogyne javanica [8] and with Meloidogyne javanica [9] was Active. In addition, the inhibition result in the assay on Meloidogyne javanica [5] and with Meloidogyne javanica [6] was “Active” throughout. The LC90 with Meloidogyne javanica [1] was 4.94 µg/mL (≈ 49.8 µM). Also, the median lethal concentration (LC50) with Meloidogyne javanica [1] was found to be 2.76 µg/mL (≈ 27.8 µM). Also, in the assay with Meloidogyne javanica [7], the LD50 amounted to 0.49 mL. The values for the mortality at 5 µg/mL in the assay with Meloidogyne javanica [2] and in the assay on Meloidogyne javanica [3] were 90.5% and 70.1%, respectively.

Consider `S=C=NCc1ccccc1` [BENZYL ISOTHIOCYANATE], for which, in the assay with Meloidogyne javanica [1], the LC90 is 8.55 µg/mL (≈ 57.3 µM) and the LC50 turned out to be 4.48 µg/mL (≈ 30 µM). Besides, in the assay with Meloidogyne javanica [2], the mortality at 5 µg/mL was found to be 70.2%. The mortality at 5 µg/mL in the assay with Meloidogyne javanica [3] stood at 32.2%.

As for `N#CSCc1ccccc1` [BENZYL THIOCYANATE], in the assay on Meloidogyne javanica [1], the LC90 turned out to be 8.71 µg/mL (≈ 58.4 µM) and the LC50 is 4.64 µg/mL (≈ 31.1 µM). For the same compound, in the assay with Meloidogyne javanica [2], the mortality at 5 µg/mL worked out at 66.4%. In addition, the mortality at 5 µg/mL with Meloidogyne javanica [3] came to 30.1%.

On to `CC/C=C/N=C=S` [BUTENYL ISOTHIOCYANATE], for which the mortality at 5 µg/mL in the assay on Meloidogyne javanica [2] is 49.9%; with Meloidogyne javanica [3], 20.6%.

For `CCCCN=C=S` [BUTYL ISOTHIOCYANATE], the results for the mortality at 5 µg/mL in the assay on Meloidogyne javanica [2] and in the assay with Meloidogyne javanica [3] were 58.6% and 28.1%, respectively.

For `CCN=C=S` [ETHYL ISOTHIOCYANATE], in the assay on Meloidogyne javanica [1], the LC90 was determined as 5.72 µg/mL (≈ 65.6 µM) and the LC50 amounted to 3.05 µg/mL (≈ 35 µM). Moreover, the mortality at 5 µg/mL in the assay with Meloidogyne javanica [2] came out at 88.2%. Besides, in the assay on Meloidogyne javanica [3], the mortality at 5 µg/mL is 66.9%.

Consider `CC(C)/C=C/N=C=S` [ISOAMYLENE ISOTHIOCYANATE], for which the mortality at 5 µg/mL in the assay with Meloidogyne javanica [2] came to 56.9%; in the assay with Meloidogyne javanica [3], 27.4%.

`CC(C)N=C=S` [ISOPROPYL ISOTHIOCYANATE]: the mortality at 5 µg/mL in the assay with Meloidogyne javanica [2] turned out to be 42.9%; with Meloidogyne javanica [3], 22.6%.

As to `CC(C)CC(=O)N=C=S` [ISOVALERYL ISOTHIOCYANATE], the results for the mortality at 5 µg/mL in the assay on Meloidogyne javanica [2] and with Meloidogyne javanica [3] were 58.5% and 26.4%, respectively.

For the compound `CNC(=S)[S-].[Na+]` [METAM SODIUM], in the assay with Meloidogyne javanica [1], the LC90 came out at 3.65 µg/mL and the LC50 amounted to 2.12 µg/mL. Moreover, the mortality at 5 µg/mL with Meloidogyne javanica [2] is 93.4%. Also, the mortality at 5 µg/mL in the assay on Meloidogyne javanica [3] worked out at 72.2%. Further, the inhibition entry in the assay with Meloidogyne javanica [10] is “Active”.

Turning to `S=C=NCCc1ccccc1` [PHENETHYLISOTHIOCYANATE], in the assay on Meloidogyne javanica [1], the LC90 worked out at 6.96 µg/mL (≈ 42.6 µM) and the LC50 was found to be 4.15 µg/mL (≈ 25.4 µM). Besides, the mortality at 5 µg/mL in the assay with Meloidogyne javanica [2] worked out at 79.6%. In the assay on Meloidogyne javanica [3], the mortality at 5 µg/mL came out at 60.8%.

With `S=C=Nc1ccccc1` [PHENYLISOTHIOCYANATE], the mortality at 5 µg/mL with Meloidogyne javanica [2] was found to be 58.2%; in the assay on Meloidogyne javanica [3] it was 25.6%.

On to `CCCN=C=S` [PROPYL ISOTHIOCYANATE], for which the mortality at 5 µg/mL in the assay on Meloidogyne javanica [2] worked out at 40.2%; in the assay with Meloidogyne javanica [3], 21.5%.

A word on the LC50: it is the concentration lethal to half of the exposed cells or organisms. Usually mortality stands for the percentage killed.
